US11668699B2, “Compositions and methods for determining mechanical properties of cells” (Arizona Board of Regents on Behalf of the University of …, priority 2016, dated 2023)
Like-named read-outs stand apart in the source and are kept apart here.

Experiments:
[1] = system: platelets; conditions: for Platelet deformation along the axis of maximum extension, normalized to the original length: platelets treated with 0.4% paraformaldehyde, 1 MHz
Procedure: Gel filtered platelets were prepared as previously described, from whole blood drawn from aspirin and non-steroidal anti-inflammatory medication free volunteers providing informed consent (Sheriff, J., et al., High-shear stress sensitizes platelets to subsequent low-shear conditions. Ann Biomed Eng, 2010. 38(4): p. 1442-50).
A 127 μm-thick hollow polymer spacer was placed on top of the chip to create a fluid chamber and the chip was covered with a coverslip for microscopic observation. All chip glass surfaces were coated with Sigmacote (Sigma-Aldrich, MO, USA) and rinsed with D.I. water to prevent surface-induced platelet activation.
To visualize platelets they were first exposed to Alexa Fluor 594 conjugated wheat germ agglutinin (1 μg/mL, 10 mins, 37° C., Invitrogen, CA). Platelets were then diluted 100-200 fold (v/v) in isotonic buffer (Pommer, M. S., et al., Dielectrophoretic separation of platelets from diluted whole blood in microfluidic channels. Electrophoresis, 2008. 29(6): p. 1213-8) containing 8.5% w/v sucrose and 0.3% w/v dextrose until the medium conductivity reached ˜1500/cm. as measured by a Jenway 4520 conductivity meter (Jenway, Staffordshire, UK). 50 μl of the diluted platelets sample were pipetted into the fluid chamber of the microelectrode chip. An alternating electric current in a sine wave pattern was generated across the microelectrodes using a function generator (332220A, Agilent, CA,) connected to a wideband power amplifier (7600M, Krohn-hite, MA). The amplitude of applied voltage was monitor via digital oscilloscope (GDS-1102, GW Instek, CA). The sample chip was imaged via fluorescence microscopy (Eclipse E800, 100× oil, Nikon, N.Y.), images were captured via CCD (Sensicam 12bt CCD camera, Cooke Corporation, MI), processed and quantified using NIH Image J software.
In the studies, platelet deformations under sequential increase of applied voltage, from 0 to 90Vpk-pk at 15V steps, were measured at a frequency of 1 MHz and the result is shown in FIG. 4A. […] Images of deformed platelets were captured in a duration ˜5s.

[2] = system: platelets; assay: Platelet activation assay: cell surface expression of P-selectin by immunofluorescence; format: cell-based, human; conditions: 0.125 μM thrombin, 10 mins, 37° C.; mean ± standard error, >70 platelets
Excerpt: (§1) Platelet activation level was quantified via cell surface expression of P-selectin utilizing immunohistochemical staining (Hsulin, S. C., et al., A Platelet Membrane-Protein Expressed during Platelet Activation and Secretion-Studies Using a Monoclonal Antibody Specific for Thrombin-Activated Platelets. Journal of Biological Chemistry, 1984. 259(14): p. 9121-9126; Berman, C. L., et al., A Platelet Alpha Granule Membrane-Protein That Is Associated with the Plasma-Membrane after Activation-Characterization and Subcellular-Localization of Platelet Activation Dependent Granule-External Membrane-Protein. Journal of Clinical Investigation, 1986. 78(1): p. […] Platelets were paraformaldehyde fixed (3%, 20 mins) rinsed and incubated (30 min., 37° C.) with FITC Mouse Anti-Human CD62P (50 μl, 1:5 (v/v) dilution in PBS, BD Biosciences, CA) and imaged using fluorescence microscopy. Fluorescence intensity levels were measured following background subtraction. […] Activation of the positive and negative controls was also quantified via the chemically modified prothrombin-based platelet activation state (PAS) assay (Jesty, J. and D. Bluestein, Acetylated prothrombin as a substrate in the measurement of the procoagulant activity of platelets: Elimination of the feedback activation of platelets by thrombin. Analytical Biochemistry, 1999. 272(1): p. 64-70.).

[3] = system: platelets; assay: Chemically modified prothrombin-based platelet activation state (PAS) assay; format: cell-based, human; conditions: 0.125 μM thrombin, 10 mins, 37° C.
Excerpt: as §1

| Substance | Decrease in deformation compared to untreated platelets ([1]; 0.4% paraformaldehyde, 90Vpk-pk applied voltage, p-value=0.0002) [times] | Young's modulus of platelets (slope of linear fitted stress-deformation curve) ([1]; platelets treated by 0.4% paraformaldehyde, stress from Maxwell stress tensor simulation) | Platelet deformation along the axis of maximum extension, normalized to the original length ([1]; applied voltage 15 V) [%] | Platelet deformation along the axis of maximum extension, normalized to the original length ([1]; applied voltage 90 V) [%] | P-selectin expression, averaged fluorescence intensity level [2] | Platelet activation level (PAS assay) [3] [%] |
| --- | --- | --- | --- | --- | --- | --- |
| paraformaldehyde | 2.75 | 8.5+/−1.5 kPa | 0.73±1.33 | 4.90±1.98 |  |  |
| thrombin |  |  |  |  | 1526.15±75.04 | 24.7 |
